Key:
total Ca2+ currents = test: Whole-cell patch-clamp, total Ca2+ currents in small-to-medium DRG neurons; assay type: cell-based, rat; details: 20 μM overnight; normalized to 0.1% DMSO control (1.00±0.06)
Method: Recordings were obtained from acutely dissociated DRG neurons as described earlier (Bellampalli et al., 2019). Patch-clamp recordings were performed at room temperature (22-24° C.). Currents were recorded using an EPC 10 Amplifier-HEKA (HEKA Elektronik, Ludwigshafen, Germany) linked to a computer with Patchmaster software. DRG neurons were incubated overnight (˜16-24 hours) with 20 μM of CBD3063.
For total calcium current (ICa^2+) recordings, the external solution consisted of the following (in mM): 110 N-methyl-D-glucamine, 10 BaCl2, 30 TEA-Cl, 10 HEPES, 10 glucose, and 0.001 TTX (pH 7.29 adjusted with TEA-OH, and mOsm/L=310). Patch pipettes were filled with an internal solution containing (in mM): 150 CsCl2, 10 HEPES, 5 Mg-ATP, and 5 BAPTA, (pH 7.2 adjusted with CsOH, and mOsm/L-305). Peak Ca^2+ current was acquired by applying 200-millisecond voltage steps from −70 to +60 mV in 10-mV increments from a holding potential of −90 mV to obtain the current-voltage (I-V) relation. To measure the different subtypes of Ca^2+ channels, DRGs were treated with a Cav inhibitor cocktail omitting the inhibitor specific to the subtype being tested (e.g., to measure Cav2.2 currents, ω-conotoxin GVIA is omitted): Nifedipine (10 μM, L-type), ω-Conotoxin-GVIA (500 nM, […]) (Feng, et al., 2001), SNX482 (200 nM, R-type) (Newcomb et al., 1998), ω-agatoxin (200 nM, P/Q-type) (Mintz et al., 1992), TTA-P2 (1 μM, T-type) (Choe et al., 2011).
Normalization of currents to each cell's capacitance (pF) was performed to allow for collection of current density data. For I-V curves, functions were fitted to data using a non-linear least squares analysis. I-V curves were fitted using double Boltzmann functions:
where x is the pre-pulse potential, V1/2 is the mid-point potential, and k is the corresponding slope factor for single Boltzmann functions. Double Boltzmann fits were used to describe the shape of the curve, not to imply the existence of separate channel populations. Numbers 1 and 2 simply indicate first and second mid-points; a along with g are fitting parameters.
Activation curves were obtained from the I-V curves by dividing the peak current at each depolarizing step by the driving force according to the equation: G=I/(Vmem-Erev), where I is the peak current, Vmem is the membrane potential and Erev is the reversal potential. The conductance (G) was normalized against the maximum conductance (Gmax). For total and the different subtypes of Ca^2+ currents, steady-state inactivation (SSI) curves were obtained by applying an H-infinity protocol that consisted of 1.5-seconds conditioning pre-pulses from −100 to +30 mV in 10-mV increments followed by a 20-millisecond test pulse to +10 mV. For Na^+ currents, SSI curves were obtained by applying an H-infinity protocol that consisted of 1-second conditioning pre-pulses from −120 to +10 mV in 10-mV increments followed by a 200-millisecond test pulse to +10 mV. Inactivation curves were obtained by dividing the peak current recorded at the test pulse by the maximum current (Imax). Activation and SSI curves were fitted with the Boltzmann equation.

[1] = Preliminary tests of analgesic properties

Compound | normalized peak total ICa2+ density (total Ca2+ currents) | analgesic properties [1]
N=C(NCCCN1CCc2ccccc2C1)NCc1ccccc1 [CBD3065, N′-benzyl-N-[3-(3,4-dihydro-1H-isoquinolin-2-yl)propyl]guanidine] | 0.52±0.07 ratio to DMSO control | did not exhibit analgesic properties
COc1ccccc1CNC(=N)NCCCN1Cc2ccccc2C1 [CBD3074, N-[3-(1,3-dihydroisoindol-2-yl)propyl]-N′-[(2-methoxyphenyl)methyl]guanidine] | 0.58±0.06 ratio to DMSO control | 

From patent US20250017940A1, “SELECTIVE PEPTIDOMIMETIC MODULATORS OF CAV2.2 (N-TYPE) VOLTAGE-GATED CALCIUM CHANNELS AND USES THEREOF” (New York University, priority 2023, published 2025)
